In one test the test system is PC3-101P3A11 cells. Description: Proliferation of PC3-101P3A11 and PC3-neo cells. The test is classed as cell-based, human. To be noted: PC3-101P3A11 cells, dose dependent. How it is done: Since adenylate cyclase activity modulates intracellular levels of cAMP and induce downstream signaling events such as activation of protein kinase A, calcium and ERK MAPK signaling (Pierce K. L., et al, Oncogene. 2001, 20: 1532), we determined that PTX, an inhibitor of adenylate cyclase signaling, prevents 101P3A11-mediated ERK phosphorylation along with inhibiting cAMP accumulation (FIG. 33 and FIG. 34). PC3-neo and PC3-101P3A11 cells were grown overnight in 0.1% FBS in media alone or in the presence of pertussis toxin (PTX). Cells were stimulated with 0.1% or 10% FBS (FIG. 33) or 10% FBS, EGF or GRP (FIG. 34). Cells were lysed and analyzed by Western blotting using anti-Phospho-ERK mAb. Expression of 101P3A11 mediated ERK phosphorylation by 10% FBS in PC3 cells, which was inhibited by PTX (FIG. 33 and FIG. 34).
GPCR transmit their signal by activating trimeric G proteins. Once GPCRs are activated, the associated Ga subunit binds GTP, dissociates from the receptor and participates in downstream signaling events (Schild, D., and Restrepo, D. Physiol Rev. 1998, 78:429-66). In order to determine that inhibition of Ga subunits has an effect on 101P3A11 mediated cell growth, the effect of two Ga inhibitors on the proliferation of 3T3-101P3A11 cells was investigated. Control 3T3 and 3T3-101P3A11 cells were grown in the presence or absence of suramin or its derivative NF 449 (Sigma). Cells were analyzed for proliferation 72 hours later (FIG. 35). The experiment was performed in triplicate. […] This response was 101P3A11 specific as suramin and NF449 had no effect on the proliferation of control 3T3 cells. Similarly, inhibition of G protein activation by suramin and NF449 in PC3 cells inhibits the proliferation of PC3-101P3A11 cells grown in 5% FBS (Figure M4). […] This ERK phosohorylation and activation was inhibited by suramin and NF449 in PC3-101P3A11 and 3T3-101P3A11 cells. ERK phosphorylation was inhibited in a dose dependent manner in PC3-101P3A11 cells treated with suramin. […]

A further test relates to 3T3-101P3A11 tumors. Description: Subcutaneous growth of 3T3-101P3A11 tumors in SCID mice. The test is classed as in vivo. How it is done:
(2) Regulated expression under control of an inducible vector system, such as ecdysone, tet, etc., can be used provided such promoters are compatible with the host cell systems. […] FIG. 21 compares subcutaneous growth of control 3T3-neo and 3T3-101P3A11 cells. One million cells stably expressing neo or 101P3A11 were injected subcutaneously in SCID mice along with matrigel. Tumor volume was evaluated by caliper measurements. […] Additionally, SCID mice were implanted with the same 3T3-101P3A11 cells orthotopically in the prostate to determine if 101P3A11 has an effect on local growth in the prostate or on the ability of the cells to metastasize, specifically to lungs or lymph nodes. […] In an analogous manner, cells can be implanted orthotopically in the bladder, colon or kidney. (Saffran, D., et al., PNAS 10:1073-1078; Fu, X., et al., Int. J. Cancer, 1991, 49: p. 938-939; Chang, S., et al., Anticancer Res., 1997, 17: p. 3239-3242; Peralta, E. A., et al., J. Urol., 1999, 162: p. 1806-1811). The tumor enhancing effect of 101P3A11 was also observed when 101P3A11 is expressed in prostate cancer cells such as PC3 and introduced into the prostate of SCID mice (Figure M11). A 2.5 fold increase in tumor weight is observed in tumors expressing 101P3A11 relative to control cells.
Furthermore, these assays is useful to confirm the anti-101P3A11 inhibitory effects of candidate therapeutic compositions, such as for example, 101P3A11 antibodies or intrabodies, and 101P3A11 antisense molecules or ribozymes, or 101P3A11 directed small molecules. In FIG. 22, we depict the effect of a small molecule, pertussis toxin (PTX) on tumor formation by 3T3-101P3A11 cells. In this experiment, SCID mice were injected with 3T3-101P3A11 alone or in conjunction with PTX. Each mouse was given 5 doses of PTX at 3-4 days interval. Tumor volume was evaluated by caliper measurements. […] Similarly, treatment with the G-protein inhibitor suramin inhibits the growth of 3T3-101P3A11 tumors (Figure M13).

On to pertussis toxin [PTX], for which the inhibition of proliferation entry with PC3-101P3A11 cells is “inhibited”. The “inhibition of tumor growth” value in the test with 3T3-101P3A11 tumors (5 doses at 3-4 days interval, tumor volume by caliper) was “inhibits tumor growth in a dose dependent manner”; in the test on 3T3-101P3A11 tumors (5 doses at 3-4 days interval, tumor volume by caliper, listed as Pertussis toxin) it was “inhibit”; with 3T3-101P3A11 tumors (5 time per week, after 25 days), 70%.
